Reference: US20130079353A1, “FLUOROQUINOLONES FOR THE TREATMENT AND/OR PROPHYLAXIS OF INFLAMMATORY DISEASES” (priority 2009, published 2013)

Columns and labels:
IL-2 [1] = test: IL-2 gene expression, quantitative real-time SYBRGreen PCR (vs GAPDH); format: cell-based, human
Method: (§1) Quantitative real-time-PCR was performed using the Power SYBR Green PCR Master Mix (Applied Biosystems). Gene expression was analyzed using the 7500 Real-Time PCR Systems and Sequence Detection Software version 1.2.2 (Applied Biosystems). IL-2 and IL-4 gene expression levels were normalized using glyceraldehyde-3-phosphat dehydrogenase (GAPDH) expression levels as an endogenous reference.
(§2) The mean induction ratios were calculated.
(§3) Total cellular RNA was isolated and reverse-transcribed. Expression of IL-2 (see FIG. 4A) and IL-4 (see FIG. 4B) was analyzed using quantitative real-time SYBRGreen PCR. IL-2 and IL-4 expression levels were estimated by gene expression ratio between IL-2 or IL-4 gene and GAPDH genes.
Total cellular RNA was isolated and reverse-transcribed. Expression of IL-2 (see FIG. 5A) and IL-4 (see FIG. 5B) was analyzed using quantitative real-time SYBRGreen PCR. IL-2 and IL-4 expression levels were estimated by gene expression ratio between IL-2 or IL-4 gene and GAPDH genes. […]
(§4) Next, the cells were activated via plate-bound anti-CD3 antibody for 1 h and the gene expression levels for IL-4 (sec FIGS. 6A and 13), IL-2 (see FIGS. 6C and D) and CD95L (see FIGS. 6E and F) were assayed. […] A clear inhibition of TCR induced up-regulation of IL-4, IL-2 and CD95L was detected.

[2] = test system: complex II (succinate dehydrogenase); test: Activity of complex II in treated T-cells; format: cell-based; details: prolonged, long-term treatment of pre-activated human T-cells
Method: (§5) Activities of the respiratory chain single enzyme complexes I and II, as well as of citrate synthase, were measured as described previously with minor modifications. Ciprofloxacin-treated cells were depleted of dead cells via Biocoll (Biochrom) gradient centrifugation. The cell number in different batches of ciprofloxacin-treated cells was equalized. For measurement of the enzymatic activities, samples were prepared as described previously with minor modifications. 4×10^7 cells were washed with PBS, shock-frozen in liquid nitrogen and thawed on ice. Next, cells were permeabilized by 15 min incubation with 1 ml of 0.015% digitonin (w/v) in respiratory chain (RC) buffer (250 mM sucrose, 50 mM KCl, 5 mM MgCl2, 20 mM Tris-HCl, pH 7.4), washed with RC buffer and centrifuged at 8 000 rpm for 5 min at 4° C. For a single data point the activity measurement was performed three times in triplicates and the average value was calculated. Steady state activity was recorded in a 96-well plate spectrophotometer using a thermostated chamber and a final volume of 300 μl. Enzymatic activities of complex I and complex II were recorded as NADH oxidation at 340-400 nm and as succinate oxidation at 610-750 nm, respectively. Citrate synthase activity was detected after two additional freeze/thaw cycles as 5,5′-dithiobis-(2-nitrobenzoic acid) (DTNB) reduction at 412 nm.

IL-4 [3] = test: IL-4 gene expression, quantitative real-time SYBRGreen PCR (vs GAPDH); format: cell-based, human
Method: as §1, §2, §3
Total cellular RNA was isolated and reverse-transcribed. Expression of IL-2 (see FIG. 5A) and IL-4 (see FIG. 5B) was analyzed using quantitative real-time SYBRGreen PCR. IL-2 and IL-4 expression levels were estimated by gene expression ratio between IL-2 or IL-4 gene and GAPDH genes. Data are shown as fold increase of induction of gene expression, where anti-CD3 activated cells are compared with respective unstimulated controls.
as §4

IL-4 [4] = test: Activation-induced IL-4 secretion, ELISA; format: cell-based, human; details: 50 μg/ml for 7 days, anti-CD3 (30 μg/ml) and anti-CD28 (1 μg/ml) for 16 h
Method: IL-2 and IL-4 concentrations were measured by enzyme-linked immunosorbent (ELISA) assay (BD OptEIA Set Human IL-2/IL-4, Becton Dickinson). Resting peripheral human T-cells (“day 0” T-cells)+/−rotenone (10 μg/ml, 15 min pre-treatment) were stimulated with plate-bound anti-CD3 monoclonal antibody (30 μg/ml) and soluble anti-CD28 monoclonal antibody (1 μg/ml) for 4 h. Next, the supernatants were cleared by centrifugation and the measurements were performed according to the manufacturer's instructions.
Human peripheral blood T-cells from healthy donors or patients with atopic dermatitis were pre-activated by PHA treatment and subsequently cultured for 7 days in presence or absence of 50 μg/ml cipro. Next, T-cells were activated via plate-bound anti-CD3 antibody (30 μg/ml) and soluble anti-CD28 antibody (1 μg/ml) for 16 h. Supernatants were harvested and secreted amounts of IL-4 were measured by ELISA. […] Therefore, inhibition of IL-4 transcription is not compensated by translational or post translational mechanisms.

[5] = test system: mitochondrial respiratory complex I (NADH-quinone oxidoreductase); test: Activity of mitochondrial respiratory complex I in treated T-cells, real-time spectrophotometry; format: cell-based, human; details: PHA-pre-activated T-cells treated 7 days; 15 min, 20° C.; normalized to total protein content; three donors
Method: as §5, with “Next, cells were permeabilized by 15 min incubation with 1 ml of 0.015% digitonin (w/v) in respiratory chain (RC) buffer (250 mM sucrose, 50 mM KCl, 5 mM MgCl2, 20 mM Tris-HCl, pH 7.4), washed with RC buffer and centrifuged at 8 000 rpm for 5 min at 4° C.” left out
PHA-pre-activated and treated T-cells (see Example 2.1) were shock-frozen in liquid nitrogen. Next, activity of mitochondrial respiratory complex I (NADH-quinone oxidoreductase) was measured by real-time spectrophotometry. […]

[6] = test system: activation-induced ROS generation in pre-activated primary human T-cells; test: Activation-induced ROS generation, H2DCF-DA staining and FACS; format: cell-based; details: PHA-pre-activated T-cells, 7 days of Cipro treatment, plate-bound anti-CD3 (30 μg/ml), 1 h after activation
Method: Cells were stained with H2DCF-DA (5 μM) for 30 min. Next, cells were then divided and stimulated with either plate-bound anti-CD3 antibody (30 μg/ml) or PMA (10 ng/ml). Treatment was terminated by ice-cold PBS and ROS generation was determined by FACS analysis. If not stated otherwise, ROS generation was quantified as the increase in mean fluorescence intensity (MFI), calculated according to the following formula: increase in
MFI(%)=[(MFIstimulated−MFIunstimulated)/MFIunstimulated]×100 9.
After PHA-pre-activated and 7 days of Cipro treatment, T-cells were stained with redox sensitive fluorescent probe H2DCF-DA (20 min, 37° C.) and subsequently activated via plate-bound agonistic anti-CD3 antibody (30 μg/ml). The level of activation-induced ROS was assessed by FACS measurement 1 h after activation and calculated as percentage increase in MFI (untreated control set to 100%).

citrate synthase = test: Activity of citrate synthase in treated T-cells; format: cell-based; details: prolonged, long-term treatment of pre-activated human T-cells
Method: as §5

CD95L = CD95L gene expression, quantitative real-time SYBRGreen PCR (vs GAPDH); format: cell-based, human; details: T-cells from patients with atopic dermatitis, 50 μg/ml for 7 days, anti-CD3 for 1 h
Method: as §1, §4

IL-2 [7] = details: short-term (up to 96 hours) or simultaneous treatment, PHA-activated human T-cells; cited from earlier work
[8] = test system: PHA-activated human T-cells; details: short-term (up to 96 hours) or simultaneous treatment; cited from earlier work
[9] = PHA-pre-activated primary human T-cells, different amounts of ciprofloxacin for 7 days, not restimulated
[10] = T-cells from patients with atopic dermatitis, 50 μg/ml for 7 days, anti-CD3 for 1 h

O=C(O)c1cn(C2CC2)c2cc(N3CCNCC3)c(F)cc2c1=O [ciprofloxacin, 1-cyclopropyl-6-fluoro-1,4-dihydro-4-oxo-7-(1-piperazinyl)-3-quinoline-carboxylic acid]
basal IL-2 expression (IL-2 [1]; [9]): increases basal IL-2 and IL-4 expression slightly
anti-CD3-induced increase in IL-2 transcripts levels (IL-2 [1]; [10]): clearly blocked
activity of complex II (succinate dehydrogenase) [2]: unaffected
basal IL-4 levels, treated PHA-pre-activated T cells vs "day 0" T cells (IL-4 [3]; 5 healthy donors, 50 μg/ml for 7 days, P<0.05 (0.03125)): significant down-regulation
basal IL-4 levels, treated PHA-pre-activated T cells vs "day 0" T cells (IL-4 [3]; 7 patients with atopic dermatitis, 50 μg/ml for 7 days, P<0.01 (0.00781)): significant down-regulation
basal IL-4 expression (IL-4 [3]; [9]): increases basal IL-2 and IL-4 expression slightly
anti-CD3-induced increase in IL-4 transcripts levels (IL-4 [3]; [10]): clearly blocked
CD3/CD28 triggering-induced IL-4 secretion (IL-4 [4]; T-cells from healthy donors): blocked
CD3/CD28 triggering-induced IL-4 secretion (IL-4 [4]; T-cells from patients with atopic dermatitis): blocked
activity of mitochondrial respiratory complex I [5]: impaired activity
activation-induced ROS generation [6]: blocks
activity of citrate synthase (citrate synthase): unaffected
anti-CD3-induced increase in CD95L transcripts levels (CD95L): clearly blocked
IL-2 secretion (IL-2 [7]): enhanced
proliferation of PHA-activated human T-cells [8]: enhanced
